Laboratory results from the NIST ThermoML archive (doi:10.1021/acs.jced.6b00829).
Numbers after ± are expanded uncertainties.

Tests used:
[1] = 298.15 K; 101.33 kPa; Liquid; Vibrating tube method
[2] = refractive index (Na D-line) (dimensionless); conditions: 298.15 K; 101.33 kPa; Liquid; Standard Abbe refractometry

SMILES | mass density [1] [kg/m3] | refractive index [2]
CCCCn1cc[n+](C)c1.F[P-](F)(F)(F)(F)F [1-butyl-3-methylimidazolium hexafluorophosphate] | 1367.4 ± 2.1 | 1.4095 ± 0.0008
CCO [ethanol] | 786.47 ± 2 | 1.3594 ± 0.0008
O [water] |  | 1.3325 ± 0.0008
